Like-named read-outs stand apart in the source and are kept apart here.
Columns and labels:
recombinant HuBraf V600E = recombinant HuBraf V600E (Homo sapiens, UniProt P15056, V600E); experiment: B-raf Homogenous Time Resolved Fluorescent (HTRF) kinase assay; format: biochemical; details: human mutant B-raf V600E, substrate MEK1, 10 uM ATP, read-out: HTRF Enzyme assay Data IC50
Protocol: B-raf-Homogenous Time Resolved Fluorescent (HTRF) Kinase Assay
The final concentration of the kinase reaction buffer is 50 mM Tris-HCL pH 7.5, 10 mM MgCl2, 0.5% glucose, 0.5 mM DTT, 0.01% BSA. […] The detection reaction proceeds for one hour and is read on a RubyStar (BMG Labtech) counter. IC50s for the test compounds are generated using Excel-XLfit software.

V600E mutant B-raf = target: T1, V600E mutant B-raf (Homo sapiens, UniProt P15056, V600E); experiment: B-raf cell-based assay (ratio of phospho-ERK1/2 to total ERK1/2 in A375 cells); details: A375 human melanoma cells, P-ERK/total ERK
T1 construct: A375 cells, a human melanoma cell line having the V600E mutant B-raf is used in this assay; endogenous in cells; host or cells: A375 human melanoma cells
Protocol: A cell-based assay was optimized to assay the ability of compounds to inhibit B-raf activity in a whole cell context. […] The cell-based assay quantifies the ratio of phospho-ERK1/2 to total ERK1/2 and can thereby assay the cellular inhibition of B-raf kinase activity. A375 cells are plated into 96 well plates and grown to confluence. The cells are then changed into starve media (DMEM/0.1% BSA) for 60 minutes. Compounds in DMSO dose curves are then diluted in starve media and added to cells. […] After a 60 minute incubation the cells are fixed for 20 minutes at RT in 4% formaldehyde with 0.1% Triton X-100, protease and phosphatase inhibitors in PBS. The cells are washed four times in PBS then blocked for 60 minutes using a one to one mix of Odyssey blocking buffer (Li-Cor Biosciences, Inc) and PBS. Primary antibodies (rabbit anti-phospho p42/p44 MAPK (P-ERK1/2) from Cell Signaling Technology and mouse anti-ERK2 from Santa Cruz Biotechnology) are diluted in blocking buffer, added to the cells and incubated overnight at 4° C. The cells are then washed four times in PBS/0.1% Tween-20. Secondary antibodies (anti-mouse IRDye 800CW from Rockland, Inc and anti-rabbit AlexaFlour680 from Molecular Probes) are diluted in blocking buffer/0.5% Tween and incubated on cells for 60 minutes. After 4 washes in PBS/0.1% Tween-20 the microplate is scanned on an Odyssey Infrared Imager (Li-Cor Bioscience) which can read the signal given by the two secondary antibodies on their respective channels. The ratio of P-ERK/total ERK is determined and IC50s generated using Excel-XLfit software.

T1 sequence (P15056 whole entry V600E): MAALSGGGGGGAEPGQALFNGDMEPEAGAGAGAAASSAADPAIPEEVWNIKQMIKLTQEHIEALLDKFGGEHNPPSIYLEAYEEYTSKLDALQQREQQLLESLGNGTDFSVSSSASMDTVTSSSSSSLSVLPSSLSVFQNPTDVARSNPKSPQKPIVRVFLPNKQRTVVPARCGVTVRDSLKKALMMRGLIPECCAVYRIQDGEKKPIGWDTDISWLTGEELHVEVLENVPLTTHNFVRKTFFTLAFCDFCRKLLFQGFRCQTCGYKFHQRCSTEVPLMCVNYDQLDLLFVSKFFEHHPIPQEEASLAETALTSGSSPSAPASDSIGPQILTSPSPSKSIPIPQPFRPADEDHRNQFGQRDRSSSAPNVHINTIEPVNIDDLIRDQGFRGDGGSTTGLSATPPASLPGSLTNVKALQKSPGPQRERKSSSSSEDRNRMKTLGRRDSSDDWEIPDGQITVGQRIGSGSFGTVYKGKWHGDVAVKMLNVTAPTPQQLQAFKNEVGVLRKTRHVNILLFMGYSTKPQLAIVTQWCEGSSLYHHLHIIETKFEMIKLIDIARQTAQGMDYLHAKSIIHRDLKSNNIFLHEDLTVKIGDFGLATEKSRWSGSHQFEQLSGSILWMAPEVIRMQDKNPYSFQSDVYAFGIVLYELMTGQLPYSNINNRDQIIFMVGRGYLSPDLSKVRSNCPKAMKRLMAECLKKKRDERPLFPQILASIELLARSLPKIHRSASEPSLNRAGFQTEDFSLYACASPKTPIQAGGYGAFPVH
recombinant HuBraf V600E, sequence (P15056 whole entry V600E): as above

| IC50 (recombinant HuBraf V600E; Table I) [nM] | IC50 (V600E mutant B-raf; Table I) [nM] | IC50 (recombinant HuBraf V600E; Table II) [nM] | IC50 (V600E mutant B-raf; Table II) [nM] | SMILES |
| --- | --- | --- | --- | --- |
| 25 | 28 | – | – | COc1ccc(Nc2nccc3c(Nc4ncccc4-c4ncnc5[nH]ncc45)c(C)ccc23)cc1C(F)(F)F [Example 66, N5-(3-(1H-pyrazolo[3,4-d]pyrimidin-4-yl)pyridin-2-yl)-N1-(4-methoxy-3-(trifluoromethyl)phenyl)-6-methylisoquinoline-1,5-diamine] |
| 5 | 3 | – | – | Cc1ccc2c(Nc3ccc(Cl)cc3)nccc2c1Nc1ncccc1-c1ncnc2[nH]ncc12 [Example 67, N5-(3-(1H-pyrazolo[3,4-d]pyrimidin-4-yl)pyridin-2-yl)-N1-(4-chlorophenyl)-6-methylisoquinoline-1,5-diamine] |
| 26 | 1000 | – | – | Cc1ccc2c(Nc3ccc(Cl)cc3)nccc2c1Oc1ncccc1-c1ncnc2[nH]cnc12 [Example 68, N-(4-chlorophenyl)-6-methyl-5-((3-(9H-purin-6-yl)-2-pyridinyl)oxy)-1-isoquinolinamine] |
| – | – | 2 | 4 | Cc1ccc2c(Nc3ccc(Cl)cc3)nccc2c1Nc1ncncc1-c1ncnc2[nH]cnc12 [Example 69, N-1-(4-chlorophenyl)-6-methyl-N-5-(5-(9H-purin-6-yl)-4-pyrimidinyl)-1,5-isoquinolinediamine] |
| – | – | 5 | 86 | Cc1ccc2c(Nc3ccc(C#N)cc3)ncnc2c1Nc1ncccc1-c1ncnc2[nH]ncc12 [Example 70, 4-((7-methyl-8-((3-(1H-pyrazolo[3,4-d]pyrimidin-4-yl)-2-pyridinyl)amino)-4-quinazolinyl)amino)benzonitrile] |
| – | – | 4 | 12 | Cc1ccc2c(Nc3ccc(C#N)cc3)nccc2c1Nc1ncccc1-c1ncnc2[nH]ncc12 [Example 71, 4-((6-methyl-5-((3-(1H-pyrazolo[3,4-d]pyrimidin-4-yl)-2-pyridinyl)amino)-1-isoquinolinyl)amino)benzonitrile] |
| – | – | 20 | 18 | Cc1ccc2c(Nc3ccc4c(c3)OC(F)(F)O4)nccc2c1Nc1ncccc1-c1ncnc2[nH]ncc12 [Example 72, N-1-(2,2-difluoro-1,3-benzodioxol-5-yl)-6-methyl-N-5-(3-(1H-pyrazolo[3,4-d]pyrimidin-4-yl)-2-pyridinyl)-1,5-isoquinolinediamine] |
| – | – | 26 | 33 | Cc1ccc2c(Nc3cccc(C(F)(F)F)c3)ncnc2c1Nc1ncccc1-c1ncnc2[nH]cnc12 [Example 73, 7-methyl-N-8-(3-(9H-purin-6-yl)-2-pyridinyl)-N-4-(3-(trifluoromethyl)phenyl)-4,8-quinazolinediamine] |
| – | – | 8 | 4 | Cc1ccc2c(Nc3ccc4c(c3)OC(F)(F)O4)ncnc2c1Nc1ncccc1-c1ncnc2[nH]cnc12 [Example 74, N-4-(2,2-difluoro-1,3-benzodioxol-5-yl)-7-methyl-N-8-(3-(9H-purin-6-yl)-2-pyridinyl)-4,8-quinazolinediamine] |
| – | – | 3 | 28 | C#Cc1cccc(Nc2ncnc3c(Nc4ncccc4-c4ncnc5[nH]cnc45)c(C)ccc23)c1 [Example 75, N-4-(3-ethynylphenyl)-7-methyl-N-8-(3-(9H-purin-6-yl)-2-pyridinyl)-4,8-quinazolinediamine] |
| – | – | 9 | 5 | Cc1ccc2c(Nc3ccc(OC(F)F)cc3)ncnc2c1Nc1ncccc1-c1ncnc2[nH]cnc12 [Example 76, N-4-(4-(difluoromethoxy)phenyl)-7-methyl-N-8-(3-(9H-purin-6-yl)-2-pyridinyl)-4,8-quinazolinediamine] |
| – | – | 5 | 12 | Cc1ccc2c(Nc3ccc(Cl)cc3)ncnc2c1Nc1ncccc1-c1ncnc2[nH]cnc12 [Example 77, N-4-(4-chlorophenyl)-7-methyl-N-8-(3-(9H-purin-6-yl)-2-pyridinyl)-4,8-quinazolinediamine] |
| – | – | 33 | 33 | Cc1ccc2c(N[C@H](C)c3ccc(Cl)cc3)nccc2c1Nc1ncccc1-c1ncnc2[nH]cnc12 [Example 78, N-1-((1R)-1-(4-chlorophenyl)ethyl)-6-methyl-N-5-(3-(9H-purin-6-yl)-2-pyridinyl)-1,5-isoquinolinediamine] |
